Source: patent publication US10800792B2, “Inhibitors of Bruton's tyrosine kinase and method of their use” (JANSSEN PHARMACEUTICA NV, priority 2015, dated 2020)

Target: unphosphorylated-BTK kinase domain (UP-BTK), GST-tagged human BTK (389-659aa) (Homo sapiens (Human), UniProt Q06187)
Assay: BTK kinase Lanthascreen binding assay
Conditions: Lanthascreen tracer competition, 60 minutes incubation, pIC50 = negative log of the IC50 in molar
Outline: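 Values are pIC50, i.e. negative log of IC50 in molar, derived from concentration–response fitting. Each compound competes with a fluorescently labelled tracer for the unphosphorylated kinase domain.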

Chain of unphosphorylated-BTK kinase domain (UP-BTK), GST-tagged human BTK (389-659aa) (Q06187 389-659): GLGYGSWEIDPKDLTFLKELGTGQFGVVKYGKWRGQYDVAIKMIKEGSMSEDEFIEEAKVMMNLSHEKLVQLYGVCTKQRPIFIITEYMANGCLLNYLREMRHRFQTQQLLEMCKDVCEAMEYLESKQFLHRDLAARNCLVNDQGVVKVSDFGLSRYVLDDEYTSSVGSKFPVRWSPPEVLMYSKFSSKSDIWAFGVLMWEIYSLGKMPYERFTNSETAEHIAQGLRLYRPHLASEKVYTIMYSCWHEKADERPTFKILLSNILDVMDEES

BTK_I_binding pIC50 | IC50 (read-out: BTK_I_binding pIC50 (converted)) | SMILES
7.6 |  | Cc1cc(Oc2ccccc2)ccc1N1C(=O)Nc2c(C(=O)N[C@@H]3CCCN(C(=O)[C@H]4CCN4)C3)sc3nccc1c23 [Example 849, N—((R)-1-((R)-Azetidine-2-carbonyl)piperidin-3-yl)-5-(2-methyl-4-phenoxyphenyl)-4-oxo-4,5-dihydro-3H-1-thia-3,5,8-triazaacenaphthylene-2-carboxamide]
7.6 |  | Cc1cc(Oc2ccccc2)ccc1N1C(=O)Nc2c(C(=O)N[C@@H]3CCCN(C(=O)/C(C#N)=C/C4CC4)C3)sc3nccc1c23 [Example 850, (R,E)-N-(1-(2-Cano-3-cyclopropylacryloyl)piperidin-3-yl)-5-(2-methyl-4-phenoxyphenyl)-4-oxo-4,5-dihydro-3H-1-thia-3,5,8-triazaacenaphthylene-2-carboxamide]
7.5 |  | N#C/C(=C\C1CC1)C(=O)N1CCCC(NC(=O)c2sc3nccc4c3c2NC(=O)N4c2cccc(Oc3ccccc3)c2)C1 (stereo not shown) [Example 851, (E)-N-(1-(2-Cyano-3-cyclopropylacryloyl)piperidin-3-yl)-4-oxo-5-(3-phenoxyphenyl)-4,5-dihydro-3H-1-thia-3,5,8-triazaacenaphthylene-2-carboxamide]
 | 31.6 nM | Cc1cc(Oc2ccccc2)ccc1N1C(=O)Nc2c(C(=O)N[C@@H]3CCCN(C#N)C3)sc3nccc1c23 [Example 852, (R)—N-(1-Cyanopiperidin-3-yl)-5-(2-methyl-4-phenoxyphenyl)-4-oxo-4,5-dihydro-3H-1-thia-3,5,8-triazaacenaphthylene-2-carboxamide]
7.5 |  | CN[C@@H](C)C(=O)N1CCC[C@@H](NC(=O)c2sc3nccc4c3c2NC(=O)N4c2ccc(Oc3ccccc3)cc2C)C1 [Example 853, 5-(2-Methyl-4-phenoxyphenyl)-N—((R)-1-((S)-2-(methylamino)propanol)piperidin-3-yl)-4-oxo-4,5-dihydro-3H-1-thia-3,5,8-triazaacenaphthylene-2-carboxamide]
7.5 |  | Cc1ccccc1N1C(=O)Nc2c(C(=O)N[C@@H]3CCCN(C(=O)/C(C#N)=C/C4CC4)C3)sc3nccc1c23 [Example 854, (R,E)-N-(1-(2-Cyano-3-cyclopropylacryloyl)piperidin-3-yl)-4-oxo-5-(o-tolyl)-4,5-dihydro-3H-1-thia-3,5,8-triazaacenaphthylene-2-carboxamide]
7.5 |  | Cc1cc(Oc2cccc(COc3ccccc3C#N)c2)ccc1N1C(=O)Nc2c(C(=O)NC3CCN(C)CC3)sc3nccc1c23 [Example 855, 5-(4-(3-((2-Cyanophenoxy)methyl)phenoxy)-2-methylphenyl)-N-(1-methylpiperidin-4-yl)-4-oxo-4,5-dihydro-3H-1-thia-3,5,8-triazaacenaphthylene-2-carboxamide]
7.5 |  | COc1ccccc1Oc1ccc(N2C(=O)Nc3c(C(=O)NC4CCCN(C(=O)/C(C#N)=C/C5CC5)C4)sc4nccc2c34)c(C)c1 (stereo not shown) [Example 856, (E)-N-(1-(2-Cyano-3-cyclopropylacryloyl)piperidin-3-yl)-5-(4-(2-methoxyphenoxy)-2-methylphenyl)-4-oxo-4,5-dihydro-3H-1-thia-3,5,8-triazaacenaphthylene-2-carboxamide]
7.5 |  | Cc1cc(Oc2cccc(COc3ccccc3C#N)c2)ccc1N1C(=O)Nc2c(C(=O)NC3CCNCC3)sc3nccc1c23 [Example 857, 5-(4-(3-((2-Cyanophenoxy)methyl)phenoxy)-2-methylphenyl)-4-oxo-N-(piperidin-4-yl)-4,5-dihydro-3H-1-thia-3,5,8-triazaacenaphthylene-2-carboxamide]
7.5 |  | Cc1cc(Oc2ccccc2)ccc1N1C(=O)Nc2c(C(=O)NC3CCN(C)CC3)sc3nccc1c23 [Example 858, 5-(2-Methyl-4-phenoxyphenyl)-N-(1-methylpiperidin-4-yl)-4-oxo-4,5-dihydro-3H-1-thia-3,5,8-triazaacenaphthylene-2-carboxamide]
7.4 |  | Cc1ccc(Oc2ccccc2)cc1N1C(=O)Nc2c(C(=O)N[C@@H]3CCCN(C(=O)/C(C#N)=C/C4CC4)C3)sc3nccc1c23 [Example 859, (R,E)-N-(1-(2-Cyano-3-cyclopropylacryloyl)piperidin-3-yl)-5-(2-methyl-5-phenoxyphenyl)-4-oxo-4,5-dihydro-3H-1-thia-3,5,8-triazaacenaphthylene-2-carboxamide]
7.4 |  | O=C(N[C@@H]1CCCNC1)c1sc2nccc3c2c1NC(=O)N3c1ccc(Oc2ccccc2)cc1 [Example 860, (R)-4-oxo-5-(4-phenoxyphenyl)-N-(piperidin-3-yl)-4,5-dihydro-3H-1-thia-3,5,8-triazaacenaphthylene-2-carboxamide]
7.3 |  | Cc1cc(Oc2cccc(COc3ccccc3C#N)c2)ccc1N1C(=O)Nc2c(C(=O)N[C@@H]3CCCN(C(=O)/C(C#N)=C/C4CC4)C3)sc3nccc1c23 [Example 861, (R,E)-N-(1-(2-Cyano-3-cyclopropylacryloyl)piperidin-3-yl)-5-(4-(3-((2-cyanophenoxy)methyl)phenoxy)-2-methylphenyl)-4-oxo-4,5-dihydro-3H-1-thia-3,5,8-triazaacenaphthylene-2-carboxamide]
7.3 |  | COc1ccc(N2C(=O)Nc3c(C(=O)N[C@@H]4CCCN(C(=O)/C(C#N)=C/C5CC5)C4)sc4nccc2c34)c(C)c1 [Example 862, (R,E)-N-(1-(2-Cyano-3-cyclopropylacryloyl)piperidin-3-yl)-5-(4-methoxy-2-methylphenyl)-4-oxo-4,5-dihydro-3H-1-thia-3,5,8-triazaacenaphthylene-2-carboxamide]
7.3 |  | C=CC(=O)N1CCC[C@H](NC(=O)c2sc3nccc4c3c2NC(=O)N4c2ccc(Oc3ccccc3)cc2C)C1 [Example 863, (S)—N-(1-Acryloylpiperidin-3-yl)-5-(2-methyl-4-phenoxyphenyl)-4-oxo-4,5-dihydro-3H-1-thia-3,5,8-triazaacenaphthylene-2-carboxamide]
7.3 |  | C=CC(=O)N1CC[C@H](NC(=O)c2sc3nccc4c3c2NC(=O)N4c2ccc(Oc3ccccc3)cc2C)C1 [Example 864, (S)—N-(1-Acryloylpyrrolidin-3-yl)-5-(2-methyl-4-phenoxyphenyl)-4-oxo-4,5-dihydro-3H-1-thia-3,5,8-triazaacenaphthylene-2-carboxamide]
7.3 |  | Cc1cc(Oc2ccccc2)ccc1N1C(=O)Nc2c(C(=O)NC3CCNCC3)sc3nccc1c23 [Example 865, 5-(2-Methyl-4-phenoxyphenyl)-4-oxo-N-(piperidin-4-yl)-4,5-dihydro-3H-1-thia-3,5,8-triazaacenaphthylene-2-carboxamide]
7.3 |  | Cc1cc(Oc2ccccc2)ccc1N1C(=O)Nc2c(C(=O)N[C@@H]3CCCN(C(=O)/C=C/CN4CCCC4)C3)sc3nccc1c23 [Example 867, (R,E)-5-(2-Methyl-4-phenoxyphenyl)-4-oxo-N-(1-(4-(pyrrolidin-1-yl)but-2-enoyl)piperidin-3-yl)-4,5-dihydro-3H-1-thia-3,5,8-triazaacenaphthylene-2-carboxamide]
7.3 |  | Cc1cc(Oc2ccccc2)ccc1N1C(=O)Nc2c(C(=O)N[C@@H]3CCN(C(=O)/C(C#N)=C/C(C)(C)C)C3)sc3nccc1c23 [Example 868, (R,E)-N-(1-(2-Cyano-4,4-dimethylpent-2-enoyl)pyrrolidin-3-yl)-5-(2-methyl-4-phenoxyphenyl)-4-oxo-4,5-dihydro-3H-1-thia-3,5,8-triazaacenaphthylene-2-carboxamide]
7.3 |  | COc1ccccc1Oc1ccc(N2C(=O)Nc3c(C(=O)NC4CCCNC4)sc4nccc2c34)c(C)c1 (stereo not shown) [Example 870, 5-(4-(2-Methoxyphenoxy)-2-methylphenyl)-4-oxo-N-(piperidin-3-yl)-4,5-dihydro-3H-1-thia-3,5,8-triazaacenaphthylene-2-carboxamide]
7.3 |  | CCC(=O)N1CCC[C@@H](NC(=O)c2sc3nccc4c3c2NC(=O)N4c2ccc(Oc3ccccc3)cc2C)C1 [Example 871, (R)-5-(2-Methyl-4-phenoxyphenyl)-4-oxo-N-(1-propionylpiperidin-3-yl)-4,5-dihydro-3H-1-thia-3,5,8-triazaacenaphthylene-2-carboxamide]
7.2 |  | Cc1cc(Oc2ccccc2)ccc1N1C(=O)Nc2c(C(=O)NC3CCN(C#N)CC3)sc3nccc1c23 [Example 872, N-(1-Cyanopiperidin-4-yl)-5-(2-methyl-4-phenoxyphenyl)-4-oxo-4,5-dihydro-3H-1-thia-3,5,8-triazaacenaphthylene-2-carboxamide]
7.1 |  | Cc1cc(Oc2ccccc2)ccc1N1C(=O)Nc2c(C(=O)N[C@@H]3CCCN(C(=O)[C@H]4CCCN4)C3)sc3nccc1c23 [Example 876, 5-(2-Methyl-4-phenoxyphenyl)-4-oxo-N—((R)-1-((R)-pyrrolidine-2-carbonyl)piperidin-3-yl)-4,5-dihydro-3H-1-thia-3,5,8-triazaacenaphthylene-2-carboxamide]
7.1 |  | Cc1cc(Oc2ccccc2)ccc1N1C(=O)Nc2c(C(=O)NC3CCCN(C(=O)/C(C#N)=C/C4CC4)C3)sc3nccc1c23 (stereo not shown) [Example 877, (E)-N-(1-(2-Cyano-3-cyclopropylacryloyl)piperidin-3-yl)-5-(2-methyl-4-phenoxyphenyl)-4-oxo-4,5-dihydro-3H-1-thia-3,5,8-triazaacenaphthylene-2-carboxamide]

SMILES | BTK_I_binding pIC50 | IC50 (read-out: BTK_I_binding pIC50 (converted))
Cc1cc(Oc2ccccc2)ccc1N1C(=O)Nc2c(C(=O)N[C@@H]3CCCN(C)C3)sc3nccc1c23 [Example 873, (R)-5-(2-Methyl-4-phenoxyphenyl)-N-(1-methylpiperidin-3-yl)-4-oxo-4,5-dihydro-3H-1-thia-3,5,8-triazaacenaphthylene-2-carboxamide] | 6.9 | 
